Results reported in patent publication US20050282818A1, “Ubiquitin ligase inhibitors” (Rigel Pharmaceuticals, Inc., priority 2004, published 2005).
pIC50: −log10 of the molar value. Like-named read-outs stand apart in the source and are kept apart here.

Legend:
A549 cells = experiment: Cell proliferation PAD assay, A549; type: cell-based; settings: Homo sapiens, 48 hours
Outline: (§1)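 Proliferation was scored by DAPI imaging of fixed cells, counting live, apoptotic and dead cells, after 48 h compound exposure at 37 °C, 5% CO2. Compound, dosed in duplicate 24 h post-plating (2,000 cells/well), came from 6.3-fold dilutions of a 10 mM stock diluted 500-fold.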

H1299 cells = experiment: Cell proliferation PAD assay, H1299; type: cell-based; settings: Homo sapiens, 48 hours
Outline: as §1

DLD-1 cells = experiment: Cell proliferation PAD assay, DLD-1; type: cell-based; settings: Homo sapiens, DLD1 cells, 6pt, 48 hours
Text: (§2) Table 3 illustrates the inhibitory activity of the compounds of the invention determined by the PAD assay described above in a number of cell types. Apoptosis was not
(§3) Cell lines used are available from American Type Culture Collection (ATCC), for example, cell cultures containing A549 (ATCC# CCL-185), HeLa (ATCC# CCL-2), HCT116 ATTC# CCL-247), and H1299 (ATCC# CRL-5803) cells were maintained in T175 flasks following the ATCC recommended media and handling procedures. […] A 20,000 cells/ml solution was made for plating. Cells were plated in black Packard 96 well plates by placing 100 μl per well (2,000 cells per well). […] The definitions of the cell types used are as follows: A549 is lung carcinoma; HI 299 is non-small cell lung carcinoma; HI 155 is non-small cell lung carcinoma; AsPC-1 is pancreatic adenocarcinoma; Caov-3 is ovarian adenocarcinoma; COLO 205 is colorectal adenocarcinoma; DLD-1 colorectal adenocarcinoma; HCT116 is colorectal carcinoma; DU 145 is prostate carcinoma; ES-2 is ovarian clear cell carcinoma; H460 is large cell lung carcinoma; HELA is cervical adenocarcinoma; MIA PaCa-2 is pancreatice carcinoma; OVCAR-3 is ovarian adenocarcinoma; OVCAR8 is ovarian carcinoma; PC3 is prostate adenocarcinoma; SK-OV-3 is ovarian adenocarcinoma; SU86.86 is pancreatic carcinoma; TOV-21G is avarian clear cell carcinoma; U2OS is bone osteosarcoma; is ASPC-I is pancreatic adenocarcinoma; BXPC-3 is pabcreatic adenocarcinoma; HL60 is promyeloblast promyelocytic leukemia; K562 is bone marrow chronic myelogenous leukemia; L1210 is mouse lymphocytic leukemia; MOLT3 is T lymphoblast acute lymphoblastic leukemia; MOLT4 is T lymphoblast acute lymphoblastic leukemia; SW620 is colorectal adenocarcinoma; THP-1 is monocyte acute monocytic leukemia; U937 is histiocytic lymphoma; and UACC-257 is melanoma.
(§4) Compounds and additional media were added 24 hours after cell plating. A compound master plate was created with concentrations 500 times greater than the final concentration added to the cells. All compound testing was done in duplicate using 6.3 fold dilutions starting with 10 mM. All outside wells (and 4 internal wells) were DMSO controls. Taxol and at least one additional control were run on all plates. Three microliters of the compound master plate were added to deep well blocks containing 750 μl of RPMI media. One hundred microliters were transferred from the compound/media deep well blocks to the plated cells resulting in a 500 fold dilution of the compounds. Cells were grown at 37° C., 5% CO2 for 48 hours.
(§5) Cells to be analyzed by photography were fixed and stained. One hundred microliters of media were removed and 100 μl of 9.3% formamide was added to each well. Plates were left on the benchtop for 45 minutes. A staining solution containing 1.55 μl of 1 mg/ml DAPI added to 18.75 ml PBS was warmed for 15 minutes at 37° C. The cells were aspirated prior to washing with 100 μl of PBS. Seventy microliters of PBS were aspirated and 170 μl of the DAPI solution were added to each well of fixed cells. Plates were left at room temperature for one hour then aspirated and washed twice with 100 μl of PBS. The stained cells were left at 4° C. for a minimum of 16 hours before photographic analysis with Array Scan II (Cellomics). Analysis of the photographic images to determine numbers of live cells (proliferation), apoptotic cells and dead cells, were according to the methods described in U.S. Utility patent application Ser. No. 10/652,440, which incorporated herein in its entirety.

HCT116 cells = experiment: Cell proliferation PAD assay, HCT116; type: cell-based; settings: Homo sapiens, 48 hours
Text: as §2, §3, §4, §5

HELA cells = experiment: Cell proliferation PAD assay, HeLa; type: cell-based; settings: Homo sapiens, 6pt, 48 hours
Text: as §2, §3, §4, §5

U2OS cells = experiment: Cell proliferation PAD assay, U2OS; type: cell-based; settings: Homo sapiens, 6pt, 48 hours
Text: as §2, §3, §4, §5

TRAF6/Uev1A/Ubc13 = biological target: T1, TRAF6/Uev1A/Ubc13 (Homo sapiens, UniProt Q9Y4K3); experiment: TRAF6/Uev1A/Ubc13 plate-based ubiquitin ligase assay; type: biochemical
T1 sequence (Q9Y4K3 1-522): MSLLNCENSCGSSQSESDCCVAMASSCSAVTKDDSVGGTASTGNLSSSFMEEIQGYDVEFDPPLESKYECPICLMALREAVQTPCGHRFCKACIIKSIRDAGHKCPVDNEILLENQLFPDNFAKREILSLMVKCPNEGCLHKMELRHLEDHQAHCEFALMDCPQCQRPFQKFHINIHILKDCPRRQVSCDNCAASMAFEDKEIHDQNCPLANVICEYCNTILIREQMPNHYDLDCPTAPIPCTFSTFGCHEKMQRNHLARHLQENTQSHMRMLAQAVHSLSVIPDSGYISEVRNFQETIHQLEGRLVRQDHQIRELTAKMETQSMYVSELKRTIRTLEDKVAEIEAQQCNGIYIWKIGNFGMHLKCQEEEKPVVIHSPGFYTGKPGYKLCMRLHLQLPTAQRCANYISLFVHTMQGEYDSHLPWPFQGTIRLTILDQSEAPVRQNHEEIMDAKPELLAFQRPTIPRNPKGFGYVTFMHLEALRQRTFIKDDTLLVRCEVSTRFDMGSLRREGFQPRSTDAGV
Outline: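 Ligase activity was read as luminescence from anti-Flag/HRP detection of Flag-ubiquitin bound to casein-blocked Ni-plates alongside His-ubiquitin after a 1 h room-temperature reaction. Buffer: 62.5 mM Tris pH 7.5, 6.25 mM MgCl2, 1.0 mM DTT, 2 μM ATP; E1, Uev1a/Ubc13 and TRAF6 added last to start. IC50s derived across compound concentrations.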

COLO 205 cells = experiment: Cell proliferation PAD assay, COLO 205; type: cell-based; settings: Homo sapiens, Colo205 cells, 9pt, 48 hours
Text: as §2
(§6) Cell lines used are available from American Type Culture Collection (ATCC), for example, cell cultures containing A549 (ATCC# CCL-185), HeLa (ATCC# CCL-2), HCT116 ATTC# CCL-247), and H1299 (ATCC# CRL-5803) cells were maintained in T175 flasks following the ATCC recommended media and handling procedures. […] A 20,000 cells/ml solution was made for plating. Cells were plated in black Packard 96 well plates by placing 100 μl per well (2,000 cells per well). […]
(§7) Cells to be analyzed by photography were fixed and stained. […]

MIA PaCa-2 cells = experiment: Cell proliferation PAD assay, MIA PaCa-2; type: cell-based; settings: Homo sapiens, Miapaca2 cells, 9pt, 48 hours
Text: as §2, §6, §7

[1] = NCI-H1299, 3pt, read-out: H1299 3pt
[2] = NCI-H1299, 6pt, read-out: H1299 6pt
[3] = HCT-116, 6pt, read-out: HCT116 6pt

SMILES | pIC50 (A549 cells; 3pt, read-out: A549 3pt) | pIC50 (A549 cells; 6pt, read-out: A549 6pt) | pIC50 (H1299 cells; [1]) | pIC50 (H1299 cells; [2]) | pIC50 (DLD-1 cells) | pIC50 (HCT116 cells; [3]) | pIC50 (HELA cells) | pIC50 (U2OS cells) | pIC50 (TRAF6/Uev1A/Ubc13) | pIC50 (COLO 205 cells) | pIC50 (HCT116 cells; HCT-116, 9pt, read-out: HCT116 9pt) | pIC50 (MIA PaCa-2 cells)
O=S(=O)(Nc1cccc2cccnc12)c1cccc2nonc12 [compound 64, N-quinolin-8-yl-2,1,3-benzoxadiazole-4-sulfonamide] | 4.70 to 6.00 | > 6.00 | 4.70 to 6.00 | > 6.00 | > 6.00 | 4.70 to 6.00 | 4.70 to 6.00 | > 6.00 |  |  |  | 
O=S(=O)(c1ccc(F)c2nonc12)N1CCN(c2ncc(C(F)(F)F)cc2Cl)CC1 [compound 164, 4-({4-[3-chloro-5-(trifluoromethyl)pyridin-2-yl]piperazin-1-yl}sulfonyl)-7-fluoro-2,1,3-benzoxadiazole] | 4.70 to 6.00 | 4.70 to 6.00 | 4.70 to 6.00 | 4.70 to 6.00 |  |  |  | ≤ 4.70 | > 6.00 |  |  | 
O=S(=O)(c1ccc(Cl)c2nonc12)N1CCN(c2ncc(C(F)(F)F)cc2Cl)CC1 [compound 169, 4-chloro-7-({4-[3-chloro-5-(trifluoromethyl)pyridin-2-yl]piperazin-1-yl}sulfonyl)-2,1,3-benzoxadiazole] | ≤ 4.70 | 4.70 to 6.00 | ≤ 4.70 | > 6.00 |  |  |  | > 6.00 | 4.70 to 6.00 |  |  | 
Cc1cccc(N2CCN(S(=O)(=O)c3ccc(Cl)c4nonc34)CC2)n1 [compound 194, 4-chloro-7-{[4-(6-methylpyridin-2-yl)piperazin-1-yl]sulfonyl}-2,1,3-benzoxadiazole] | ≤ 4.70 | ≤ 4.70 | 4.70 to 6.00 | ≤ 4.70 |  |  |  | > 6.00 | ≤ 4.70 |  |  | 
CC1CN(S(=O)(=O)c2c(Cl)ccc3nonc23)CC(C)O1 (centres unmarked) [compound 204, 5-chloro-4-[(2,6-dimethylmorpholin-4-yl)sulfonyl]-2,1,3-benzoxadiazole] | 4.70 to 6.00 | ≤ 4.70 | > 6.00 | > 6.00 | > 6.00 | 4.70 to 6.00 | 4.70 to 6.00 | > 6.00 | ≤ 4.70 |  |  | 
O=S(=O)(Nc1ccc2[nH]ncc2c1)c1ccc(Cl)c2nonc12 [compound 218, 7-chloro-N-1H-indazol-5-yl-2,1,3-benzoxadiazole-4-sulfonamide] | ≤ 4.70 | ≤ 4.70 | 4.70 to 6.00 | 4.70 to 6.00 | 4.70 to 6.00 | 4.70 to 6.00 | 4.70 to 6.00 | 4.70 to 6.00 | ≤ 4.70 |  |  | 
O=S(=O)(Nc1ccc2cn[nH]c2c1)c1c(Cl)ccc2nonc12 [compound 219, 5-chloro-N-1H-indazol-6-yl-2,1,3-benzoxadiazole-4-sulfonamide] | 4.70 to 6.00 | ≤ 4.70 | 4.70 to 6.00 | > 6.00 | > 6.00 | > 6.00 | ≤ 4.70 | > 6.00 | 4.70 to 6.00 | 4.70 to 6.00 | > 6.00 | > 6.00
